Assay results as given in PubChem BioAssay (NCI).
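48-hour exposure; five concentrations; linearly interpolated endpoints. TGI denotes the concentration required for complete inhibition of growth.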

Assays:
Test in all cases: DTP human tumour cell line panel, 48 h
786-0 renal = tested on: 786-0 renal
A549 NSCLC = tested on: A549 NSCLC
HL-60(TB) leukemia = tested on: HL-60(TB) leukemia
K-562 leukemia = tested on: K-562 leukemia
KM12 colon = tested on: KM12 colon
NCI-H23 lung = tested on: NCI-H23 lung
OVCAR-4 ovarian = tested on: OVCAR-4 ovarian
RPMI-8226 leukemia = tested on: RPMI-8226 leukemia
SF-268 CNS = tested on: SF-268 CNS
SF-295 CNS = tested on: SF-295 CNS
SNB-19 CNS = tested on: SNB-19 CNS
SR leukemia = tested on: SR leukemia
UACC-257 melanoma = tested on: UACC-257 melanoma
UACC-62 melanoma = tested on: UACC-62 melanoma
DU-145 prostate = tested on: DU-145 prostate
T-47D breast = tested on: T-47D breast
BT-549 breast = tested on: BT-549 breast

Row | SMILES | TGI (786-0 renal) [µM] | TGI (A549 NSCLC) [µM] | TGI (HL-60(TB) leukemia) [µM] | TGI (K-562 leukemia) [µM] | TGI (KM12 colon) [µM] | TGI (NCI-H23 lung) [µM] | TGI (OVCAR-4 ovarian) [µM] | TGI (RPMI-8226 leukemia) [µM] | TGI (SF-268 CNS) [µM] | TGI (SF-295 CNS) [µM] | TGI (SNB-19 CNS) [µM] | TGI (SR leukemia) [µM] | TGI (UACC-257 melanoma) [µM] | TGI (UACC-62 melanoma) [µM] | TGI (DU-145 prostate) [µM] | TGI (T-47D breast) [µM] | TGI (BT-549 breast) [µM]
1 | CC(C)=CCOc1ccc(-c2coc3cc4c(c(O)c3c2=O)C=CC(C)(C)O4)cc1 | > 100 | > 100 | > 100 | > 100 | > 100 | > 100 | 80 | > 100 | > 100 | > 100 | > 100 | > 100 | > 100 |  |  |  | 
2 | C/C(=N/N)c1sc(-c2nc(C)c(/C(C)=N\N)s2)nc1C | > 100 | > 100 | > 69.3 | > 100 | > 100 | > 100 | > 100 | > 63.9 | > 100 | > 100 | > 100 | 36.4 | > 100 | > 100 |  |  | 
3 | CCOC(=O)c1ccn2c(c1)c(C#N)c1nc3ccccc3nc12 | > 100 | > 100 | > 100 | > 100 | > 100 | > 100 | > 100 | > 100 | > 100 |  | > 100 | > 100 | > 100 | 25.7 |  |  | 
4 | O=c1[nH]c(=O)n(C2CC(O)C(COP(=O)(OCC(Cl)(Cl)Cl)OCC(Cl)(Cl)Cl)O2)cc1F (centres undefined) | > 100 | > 100 | 51 | > 100 | > 100 | > 100 | > 100 | > 100 | > 100 | > 100 | > 100 | > 100 | > 100 | > 100 | > 100 | > 100 | 
5 | Oc1ccc(/C=N/c2nccs2)c(O)c1 | > 100 | > 100 |  |  | > 100 | > 100 |  |  | > 100 | > 100 | > 100 |  | > 100 | > 100 | > 100 |  | > 100
6 | CCOC(=O)c1ccc(N(CCOS(=O)(=O)c2ccc(C)cc2)CCOS(=O)(=O)c2ccc(C)cc2)cc1 |  | > 100 |  | > 100 | > 100 | > 100 | > 100 | > 100 | > 100 | > 100 | > 100 |  | > 100 | > 100 |  |  | > 100
7 | COC1OC(Cn2cc([N+](=O)[O-])nc2C)C(O)C(O)C1O (centres undefined) | > 100 | > 100 |  | > 100 | > 100 | > 100 | > 100 | > 100 |  | > 100 | > 100 | > 100 | > 100 | > 100 | > 100 | > 100 | 
8 | N#CCCN(CCC#N)c1ccc(/C=C(/NC(=O)Nc2ccccc2Cl)NC(=O)c2cc([N+](=O)[O-])ccc2Cl)cc1 |  | > 100 |  | > 100 | > 100 |  | > 100 | > 100 | > 100 | > 100 | > 100 | > 100 |  | > 100 |  |  | 
9 | COc1cccc(CCn2c(N)c(C#N)c3ccc([N+](=O)[O-])cc3c2=O)c1 | > 46.4 | > 46.4 | > 46.4 | 11.6 | > 31.6 | > 46.4 | > 100 |  | > 46.4 | > 31.6 | > 100 | 0.922 | > 31.6 | > 31.6 | > 46.4 | > 46.4 | 
10 | COC(=O)C(=O)C(C(C)=O)C(=O)C(=O)Nc1ccc(C)cc1C (centres undefined) |  | > 100 | > 100 | > 100 | > 100 | > 100 | > 100 | > 100 | > 100 | > 100 | > 100 | > 100 | > 100 | > 100 |  |  | 
11 | CCCCCC(/C=C/c1ncccc1OCCCCCC(=O)O)=N\NC1=NCCN1 |  | > 100 | > 100 | > 100 | > 100 |  | > 100 | > 100 | > 100 | > 100 | > 100 | > 100 |  | > 100 |  |  | 
12 | COC1(C)CNCC(C)(C)NC(=O)C(C)(OC)CNCC(C)(C)NC1=O (centres undefined) | > 100 | > 100 | > 100 | > 100 | > 100 | > 100 | > 100 | > 100 | > 100 | > 100 | > 100 |  | > 100 | > 100 |  |  | 
13 | CC(=O)OCC1OC(n2c(O)c(N=NC(N)=S)c3ccc([N+](=O)[O-])cc32)C(OC(C)=O)C1OC(C)=O (centres undefined) | 44.4 | > 100 | 62.7 | > 100 | > 100 | 42.1 | 43.3 | > 100 | > 100 | > 100 | > 100 | 60.2 | > 100 | 27.6 |  |  | 
14 | COc1ccc(NC(=O)NNS(=O)(=O)c2ccc(C)cc2)cc1 | > 100 | > 100 | > 100 | > 100 | > 100 | > 100 | > 100 | > 100 | > 100 | > 100 | > 100 | > 100 | > 100 | > 100 | > 100 | > 100 | 
15 | O=C(CCN1CCCC1)c1ccc(Oc2ccc(F)cc2)cc1 | 31.8 | > 100 | 37.8 | > 100 | 90.9 | > 100 | > 100 |  | > 100 | > 100 | > 100 |  | > 100 | > 100 | > 100 |  | > 100
16 | Cc1ccc(O)c(C(c2cc(C)ccc2O)c2cc([N+](=O)[O-])ccc2O)c1 | 33.9 | 31.2 | 11.7 | > 100 | 21.2 | 28.9 | 28.3 | 50.6 | 24.6 | 36.9 |  | 39.1 | 37.6 | 36.6 | 50.3 | 77.8 | 
